US10858360B2, “Tricyclic gyrase inhibitors” (priority 2011, dated 2020)
In brackets after ≈: the same amount, converted by molar mass.

How the values were obtained:
S. aureus ATCC 13709 = assay: MIC, S. aureus ATCC 13709 (Alamar Blue broth microdilution); type: cell-based; details: Alamar Blue read after overnight incubation at 35° C.; for MIC: Staphylococcus aureus, ATCC13709, S. aureus; for MIC Sa: S. aureus
E. coli ATCC 25922 = assay: MIC, E. coli ATCC 25922; type: cell-based; details: Alamar Blue read after overnight incubation at 35° C.; for MIC: Escherichia coli, ATCC25922, E. coli; for MIC Ec: E. coli

| Compound | MIC (S. aureus ATCC 13709) [µg/mL] | MIC (E. coli ATCC 25922) [µg/mL] | MIC Sa (S. aureus ATCC 13709) [µg/mL] | MIC Ec (E. coli ATCC 25922) [µg/mL] |
| --- | --- | --- | --- | --- |
| COc1nccc2c1[nH]c1nc(Sc3cnc4cccnc4c3)nc(N3CC4C(N)C4C3)c12 (centres unmarked) [7.03] | 2 (≈ 4.38 µM) | > 64 |  |  |
| CNc1cc(F)cc2c1[nH]c1nc(Oc3cncc(C#N)c3)nc(N3CC4C(N)C4C3)c12 (centres unmarked) [4.050] | ≤ 0.5 | ≤ 0.5 |  |  |
| CNc1cccc2c1[nH]c1nc(Oc3ccc(C(=O)O)nc3)nc(N3CC4C(N)C4C3)c12 (centres unmarked) [3.22] | 16 (≈ 37.1 µM) | 64 (≈ 148 µM) |  |  |
| CNc1cc(F)cc2c1[nH]c1nc(Sc3cnc4ccc[n+]([O-])c4c3)nc(N3CCC4(CC4N)C3)c12 (centres unmarked) [1.65] |  |  | ≤0.5 | ≤0.5 |
| CNc1cc(F)cc2c1[nH]c1nc(Oc3cnc(C)nc3)nc(N3CC4CCNC4(C)C3)c12 (centres unmarked) [4.116] |  |  | ≤0.5 | ≤0.5 |
| CNc1cc(F)cc2c1[nH]c1nc(Oc3cncnc3)nc(N3C[C@@H](N)C4(CC4)C3)c12 [4.006] | ≤ 0.5 | 1 (≈ 2.38 µM) |  |  |
| CNc1cccc2c1[nH]c1nc(Sc3cnc4cccnc4c3)nc(N3CC(N)C3)c12 [1.29] | 1 (≈ 2.33 µM) | > 64 |  |  |
| CNc1cccc2c1[nH]c1nc(Oc3cnc(C)nc3)nc(N3C[C@H](N)C4(CC4)C3)c12 [3.49] | ≤ 0.5 | ≤ 0.5 |  |  |
| CNc1cc(F)cc2c1[nH]c1nc(Oc3cncc(C)c3)nc(N3CC4CC(N)C4C3)c12 (centres unmarked) [4.303] | ≤ 0.5 | ≤ 0.5 |  |  |
| CNc1cc(F)cc2c1[nH]c1nc(Sc3cnc4ccc[n+]([O-])c4c3)nc(N3CCC4(CC4N)C3)c12 (centres unmarked) [1.64] | ≤ 0.5 | ≤ 0.5 |  |  |
| CNc1cccc2c1[nH]c1nc(Sc3cnc4ccc[n+]([O-])c4c3)nc(N3CC4C(N)C4C3)c12 (centres unmarked) [1.71] |  |  | ≤0.5 |  |
| CNc1cc(F)cc2c1[nH]c1nc(Oc3cnc4[nH]cnc4c3)nc(N3CC4CCNC4C3)c12 (centres unmarked) [4.312] | 16 (≈ 34.8 µM) | > 16 |  |  |
| CNc1cc(F)cc2c1[nH]c1nc(Oc3cnc(C)nc3)nc(N3CC(N)C(C(=O)NCCN4CCOCC4)C3)c12 (centres unmarked) [4.440] | 16 (≈ 28.3 µM) | > 16 |  |  |
| CNc1cccc2c1[nH]c1nc(Oc3cnc4ccoc4c3)nc(N3CC4C(N)C4C3)c12 (centres unmarked) [3.23] | ≤ 0.5 | 2 (≈ 4.68 µM) |  |  |
| CNc1cc(F)cc2c1[nH]c1nc(Oc3cncc([S+](C)[O-])c3)nc(N3CC4C(N)C4C3)c12 (centres unmarked) [4.351] |  |  | ≤0.5 | 2 (≈ 4.28 µM) |
| CNc1cc(F)cc2c1[nH]c1nc(Oc3cnc(C(C)C)nc3)nc(N3CC4CC(N)C4C3)c12 (centres unmarked) [4.234] |  |  | ≤0.5 | 1 (≈ 2.16 µM) |
| CNc1cc(F)cc2c1[nH]c1nc(Oc3cnc4c(c3)OC=CO4)nc(N3C[C@H](N)C4(CC4)C3)c12 [4.305] |  |  | ≤0.5 | 1 (≈ 2.1 µM) |
| CNc1cc(F)cc2c1[nH]c1nc(Oc3cncnc3)nc(N3CC4CCC(N)C4C3)c12 (centres unmarked) [4.016] | ≤ 0.5 | 1 (≈ 2.3 µM) |  |  |
| CNc1cc(F)cc2c1[nH]c1nc(Oc3cnc(C)nc3)nc(N3CC4CCNC4C3)c12 (centres unmarked) [4.094] |  |  | ≤0.5 | ≤0.5 |
| CNc1cc(F)cc2c1[nH]c1nc(Oc3ccc4c(c3)C(=O)NCC4)nc(N3CCC4(CC4N)C3)c12 (centres unmarked) [4.300] |  |  | ≤0.5 | ≤0.5 |
| CNc1cc(F)cc2c1[nH]c1nc(Oc3cncc(F)c3)nc(N3CC4CC(N)C3C4)c12 (centres unmarked) [4.063] |  |  | 1 (≈ 2.29 µM) | 8 (≈ 18.3 µM) |
| CNc1cccc2c1[nH]c1nc(Oc3cncnc3)nc(N3CC(F)[C@@H](N)C3)c12 (some centres unmarked) [3.63] | ≤ 0.5 | 8 (≈ 20.3 µM) |  |  |

| Compound | MIC (S. aureus ATCC 13709) [µg/mL] | MIC (E. coli ATCC 25922) [µg/mL] | MIC Sa (S. aureus ATCC 13709) [µg/mL] | MIC Ec (E. coli ATCC 25922) [µg/mL] |
| --- | --- | --- | --- | --- |
| CNc1cc(F)cc2c1[nH]c1nc(Oc3cnc(C)nc3)nc(N3CC4CCC(CN)C4C3)c12 (centres unmarked) [4.112] |  |  | ≤0.5 | 1 (≈ 2.16 µM) |
| CNc1cc(F)cc2c1[nH]c1nc(Oc3cncc(C(N)=O)c3)nc(N3CC4CC(N)C4C3)c12 (centres unmarked) [4.239] |  |  | ≤0.5 | 8 (≈ 17.3 µM) |
| CNc1cc(F)cc2c1[nH]c1nc(Oc3cnc4cccnc4c3)nc(N3CC4C[C@@H](N)C[C@H]4C3)c12 (some centres unmarked) [4.046] | ≤ 0.5 | 1 (≈ 2.06 µM) |  |  |
| CNc1cc(F)cc2c1[nH]c1nc(Oc3ccc(C(C)=O)nc3)nc(N3CC4CCNC4C3)c12 (centres unmarked) [4.309] |  |  | ≤0.5 | ≤0.5 |
| CNc1cc(F)cc2c1[nH]c1nc(Oc3ccc4c(N)nc(C)nc4c3)nc(N3CC4C(N)C4C3)c12 (centres unmarked) [4.288] |  |  | 4 (≈ 8.24 µM) | >16 |
| CNc1cc(F)cc2c1[nH]c1nc(Oc3cnc(C)nc3)nc(N3CC(N)C(C(=O)NCC(C)O)C3)c12 (centres unmarked) [4.439] | 8 (≈ 15.7 µM) | > 16 |  |  |
| CNc1cc(F)cc2c1[nH]c1nc(Oc3cnc(C)nc3)nc(N3CC4C(C3)C4NC(=O)CN)c12 (centres unmarked) [4.078] |  |  | ≤0.5 | 8 (≈ 16.8 µM) |
| CNc1cc(F)cc2c1[nH]c1nc(Oc3cncnc3)nc(N3CC[C@]4(C[C@@H]4N)C3)c12 [4.013] | ≤ 0.5 | ≤ 0.5 |  |  |
| CNc1cc(F)cc2c1[nH]c1nc(Sc3cnc4cccnc4c3)nc(N3CC4C(N)C4C3)c12 (centres unmarked) [1.51] | ≤ 0.5 | ≤ 0.5 |  |  |
| CNc1cccc2c1[nH]c1nc(Sc3cnc4ccc[n+]([O-])c4c3)nc(N3CC4CNC4C3)c12 (centres unmarked) [1.32] | ≤ 0.5 | 4 (≈ 8.5 µM) |  |  |
| CNc1cc(F)cc2c1[nH]c1nc(Oc3cnc4cccnc4c3)nc(N3CC4NCCOC4C3)c12 (centres unmarked) [4.048] |  |  | ≤0.5 | 1 (≈ 2.06 µM) |
| CNc1cccc2c1[nH]c1nc(Oc3cncnc3)nc(N3CC4CCC(N)C4C3)c12 (centres unmarked) [3.15] | 1 (≈ 2.4 µM) | 8 (≈ 19.2 µM) |  |  |
| CNc1ncc(Oc2nc(N3CC4CC(N)C4C3)c3c(n2)[nH]c2c(NC)cc(F)cc23)cn1 (centres unmarked) [4.221] | ≤ 0.5 | 2 (≈ 4.45 µM) |  |  |
| CNc1cc(F)cc2c1[nH]c1nc(Oc3cncc(OC)c3)nc(N3CCC4CNC4C3)c12 (centres unmarked) [4.166] | ≤ 0.5 | 2 (≈ 4.45 µM) |  |  |
| COc1cccc2c1[nH]c1nc(Oc3cnc4cccnc4c3)nc(N3CC4C(N)C4C3)c12 (centres unmarked) [2.14] |  |  | 1 (≈ 2.28 µM) | >64 |
| CNc1cc(F)cc2c1[nH]c1nc(Oc3cnc(C)nc3)nc(-c3cncc(F)c3)c12 [4.417] | ≤ 0.5 | 1 (≈ 2.38 µM) |  |  |
| CNc1cc(F)cc2c1[nH]c1nc(Oc3cnc4c(c3)OCCO4)nc(N3C[C@H](N)C4(CC4)C3)c12 [4.295] | ≤ 0.5 | ≤ 0.5 |  |  |
| CNc1cc(F)cc2c1[nH]c1nc(Oc3cnc(CC(=O)N4CCOCC4)nc3)nc(N3C[C@H](N)C4(CC4)C3)c12 [4.369] | ≤ 0.5 | 1 (≈ 1.83 µM) |  |  |
| CNc1cccc2c1[nH]c1nc(Oc3cnc(N)nc3)nc(N3CC4C(N)C4C3)c12 (centres unmarked) [3.32] | ≤ 0.5 | 2 (≈ 4.96 µM) |  |  |
| CNc1cccc2c1[nH]c1nc(Oc3cncnc3)nc(N3C[C@H](NCC4CC4)C4(CC4)C3)c12 [3.12] | 1 (≈ 2.19 µM) | 8 (≈ 17.5 µM) |  |  |
| CCc1cc(F)cc2c1[nH]c1nc(Oc3cnc(C)nc3)nc(N3CC4CC(N)C4C3)c12 (centres unmarked) [2.4] | ≤ 0.5 | 1 (≈ 2.31 µM) |  |  |
| CNc1cc(F)cc2c1[nH]c1nc(Oc3cnc(CO)nc3)nc(N3CC4CC3C[C@@H]4N)c12 (some centres unmarked) [4.390] | ≤ 0.5 | ≤ 0.5 |  |  |

| Compound | MIC (S. aureus ATCC 13709) [µg/mL] | MIC (E. coli ATCC 25922) [µg/mL] | MIC Sa (S. aureus ATCC 13709) [µg/mL] | MIC Ec (E. coli ATCC 25922) [µg/mL] |
| --- | --- | --- | --- | --- |
| CNc1cc(F)cc2c1[nH]c1nc(Oc3cnc(C)nc3)nc(N3CC4(CCCN4)C3)c12 [4.119] |  |  | ≤0.5 | 2 (≈ 4.6 µM) |
| COc1cccc2c1[nH]c1nc(Sc3cnc4ccc[n+]([O-])c4c3)nc(N3CC[C@@H](N)C3)c12 [1.78] | ≤ 0.5 | 64 (≈ 139 µM) |  |  |
| CCc1ncc(Oc2nc(N3CC4CC4(CN)C3)c3c(n2)[nH]c2c(NC)cc(F)cc23)cn1 (centres unmarked) [4.261] | ≤ 0.5 | 1 (≈ 2.23 µM) |  |  |
| CNc1cc(F)cc2c1[nH]c1nc(Oc3cncnc3)nc(N3C4CCC3CC(N)C4)c12 (centres unmarked) [4.025] | ≤ 0.5 | 2 (≈ 4.6 µM) |  |  |
| CNc1ncnc2c1[nH]c1nc(Oc3cncc(F)c3)nc(N3CC(N)C4(CC4)C3)c12 (centres unmarked) [7.06] | 8 (≈ 19 µM) | 64 (≈ 152 µM) |  |  |
| CNc1cc(F)cc2c1[nH]c1nc(Oc3cnc(C)nc3)nc(N3CC(NC(=O)CN)C4(CC4)C3)c12 (centres unmarked) [4.085] |  |  | ≤0.5 | 2 (≈ 4.07 µM) |
| CNc1cc(F)cc2c1[nH]c1nc(Oc3cnc(C(N)=O)nc3)nc(N3C[C@H]4C[C@@H](N)[C@H]4C3)c12 [4.374] | ≤ 0.5 | 4 (≈ 8.63 µM) |  |  |
| CNc1ncnc2c1[nH]c1nc(Oc3cncc(F)c3)nc(N3CCC4(CC4N)C3)c12 (centres unmarked) [7.07] | 16 (≈ 38 µM) | > 64 |  |  |
| CNc1cccc2c1[nH]c1nc(Oc3cnc(C)nc3)nc(N3CC4C(N)C4C3)c12 (centres unmarked) [3.29] | ≤ 0.5 | ≤ 0.5 |  |  |
| CNc1cccc2c1[nH]c1nc(Oc3cnc(C)nc3)nc(Oc3cnc(C)nc3)c12 [3.38] | 1 (≈ 2.41 µM) | > 32 |  |  |
| CNc1cc(F)cc2c1[nH]c1nc(Oc3cncc(C#N)c3)nc(N3CC4(CCC4N)C3)c12 (centres unmarked) [4.054] |  |  | ≤0.5 | ≤0.5 |
| CNc1cccc2c1[nH]c1nc(Sc3cnc4ccc[n+]([O-])c4c3)nc(N3CC4CC3CN4)c12 (centres unmarked) [1.57] | > 32 | > 32 |  |  |
| CNc1cc(F)cc2c1[nH]c1nc(Oc3cnc(C)nc3)nc(N3CCCC(N)CC3)c12 (centres unmarked) [4.071] | ≤ 0.5 | 2 (≈ 4.58 µM) |  |  |
| CNc1cc(F)cc2c1[nH]c1nc(Oc3cnc4cccnc4c3)nc(N3CC4CC4(N)C3)c12 (centres unmarked) [4.036] | ≤ 0.5 | ≤ 0.5 |  |  |
| CNc1cc(F)cc2c1[nH]c1nc(Oc3cnc(C4CC4)nc3)nc(N3CC4C[C@@H](N)C4C3)c12 (some centres unmarked) [4.254] | ≤ 0.5 | ≤ 0.5 |  |  |
| CNc1cc(F)cc2c1[nH]c1nc(Oc3ccc4c(c3)C(=O)NC4)nc(N3CC4[C@H](C[C@H]4N)C3)c12 (some centres unmarked) [4.267] | ≤ 0.5 | 4 (≈ 8.45 µM) |  |  |
| CNc1cccc2c1[nH]c1nc(Oc3cncnc3)nc(N3CCC(C(N)=O)C3)c12 (centres unmarked) [3.17] | 2 (≈ 4.95 µM) | > 16 |  |  |
| CNc1cc(F)cc2c1[nH]c1nc(Oc3cncnc3)nc(N3C4CCC3C(N)C4)c12 (centres unmarked) [4.019] | 2 (≈ 4.76 µM) | 16 (≈ 38.1 µM) |  |  |
| CNc1cccc2c1[nH]c1nc(Sc3cnc4ccc[n+]([O-])c4c3)nc(N3CC4C(N)C4C3)c12 (centres unmarked) [1.49] |  |  | ≤0.5 |  |
| CNc1cccc2c1[nH]c1nc(Sc3cnc4ccc[n+]([O-])c4c3)nc(N3CC4C(N)C4C3)c12 (centres unmarked) [1.23] |  |  | ≤0.5 |  |
